# Measured values as given in patent US10301288B2, “Kinase inhibitors” (Topivert Pharma Limited, priority 2013, dated 2019).
# Where two headings read alike, the source gives them in different places.
# Columns and labels:
# [1] = Cryopreserved hepatocyte stability, rat; format: in vitro ADME; conditions: pooled cryopreserved hepatocytes, read-out: Mean intrinsic clearance
# Experimental: Formulae Clint(tissue clearance) mL/min/kg=[0.693/t½ (min)]×[1/microsomal protein concentration mg/mL]×[mg microsomes/g liver]×[g liver/kg body weight] […] The incubations were performed at 37° C. with 100 μL, samples taken from the incubation, at 0, 10, 20, 45 and 90 minutes, and reactions terminated by addition of 100 μL of acetonitrile containing carbamazepine as analytical internal standard. […] Half-life values were calculated from the relationship T1/2 (min)=−0.693/λ • where λ was the slope of the Ln concentration vs time curve. • Standard compounds testosterone, midazolam and 4-methylumbelliferone are included in the assay design.
# Clint(Tissue Clearance) mL/min/kg=[0.693/t½(min)]×[1/hepatocyte concentration (million cells/mL)]×[million cells/g liver]×[g liver/kg body weight] Clint(Hepatic clearance) mL/min/kg=hepatic blood flow×Clint/(hepatic blood flow+Clint) Hepatic extraction ratio(Eh)=Clint(Hepatic clearance) mL/min/kg/hepatic blood flow (mL/min/kg)
# β-catenin = experiment: (m) Accumulation of β catenin in d-U937 cells; format: cell-based, human; conditions: Reference Compound at 1 μg/mL defined as 100%
# Procedure, shortened: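 PMA-differentiated (100 ng/mL, 48–72 hr) human U937 macrophage-type cells treated with test compound or vehicle for 18 hr. β-catenin measured by in-cell ELISA (anti-β-catenin, HRP secondary, TMB, OD450–655). Signal corrected for cell number by dividing by crystal violet OD595.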
# [2] = Pharmacokinetics and colon distribution in rats; format: in vivo, male Wistar rats; conditions: for concentration at 0.5 h: time cell blank (0.5 hr per method)
# Experimental: 30 male Wistar rats were divided into two groups: Group I (p.o.: 5 mg/kg) and Group II (i.v.: 0.25 mg/kg). […] From each rat, blood samples (approximately 120 μL) were collected from retro orbital plexus such that samples were obtained at pre-dose, 0.05, 0.13, 0.25, 0.5, 1, 2, 4, 8, and 24 hr (i.v.) and pre-dose, 0.5, 1, 2, 4, 6, 8, 12 and 24 hr (p.o.). Immediately after collection, plasma was harvested from blood by centrifugation and stored at −70° C. until analysis. Following collection of blood sample, the animals (Group I) were humanely euthanized by carbon dioxide asphyxiation. The total colon was isolated, flushed with cold phosphate buffer saline (pH 7.4) to remove contents and weighed. The total colon tissues homogenized with ice-cold phosphate buffered saline, pH 7.4. Buffer volume to be used for homogenization was twice the weight of tissue. All the samples were stored below −70° C. until bioanalysis. Total colon tissue homogenate volume was three times. Plasma and total colon tissue samples were quantified by LC-MS/MS method (LLOQ in plasma and total colon tissue=0.5 ng/mL).
# Syk = Syk (Homo sapiens (Human), UniProt P43405); experiment: Syk enzyme inhibition (FRET); format: biochemical
# Procedure, shortened: (§1)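 Z-LYTE FRET peptide assay: c-Src (3000 ng/mL) or Syk (2000 ng/mL) preincubated 2 h at room temperature with compound (4–0.004 μg/mL working solutions). Reaction was 1 h with peptide (8 μM solution) and ATP (800 μM c-Src, 60 μM Syk solutions), followed by 1 h protease development. Phosphorylation was read as the coumarin/fluorescein emission ratio.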
# c-Src = c-Src (Homo sapiens (Human), UniProt P12931); experiment: c-Src enzyme inhibition (FRET); format: biochemical
# Chain of c-Src (P12931 whole entry, looked up): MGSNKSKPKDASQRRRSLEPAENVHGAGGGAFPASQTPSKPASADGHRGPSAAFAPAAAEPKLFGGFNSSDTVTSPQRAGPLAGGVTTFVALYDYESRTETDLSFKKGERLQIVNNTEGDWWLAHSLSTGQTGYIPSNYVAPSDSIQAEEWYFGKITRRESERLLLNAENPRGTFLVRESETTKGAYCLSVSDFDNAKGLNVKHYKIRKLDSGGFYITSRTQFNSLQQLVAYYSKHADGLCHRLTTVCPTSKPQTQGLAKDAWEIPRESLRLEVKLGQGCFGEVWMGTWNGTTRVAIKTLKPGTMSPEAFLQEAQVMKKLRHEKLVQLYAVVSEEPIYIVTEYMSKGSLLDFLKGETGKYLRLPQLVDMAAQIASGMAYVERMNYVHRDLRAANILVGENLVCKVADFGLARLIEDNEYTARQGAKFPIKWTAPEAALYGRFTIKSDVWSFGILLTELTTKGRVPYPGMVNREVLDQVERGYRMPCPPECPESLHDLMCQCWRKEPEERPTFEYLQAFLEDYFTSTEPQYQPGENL
# Procedure, shortened: as §1
# [3] = male, Wistar, colon, po, rat, 5 mg/kg p.o., read-out: Mean concentration, Colon
# [4] = male, Wistar, plasma, po, rat, 5 mg/kg p.o., read-out: Mean concentration, Plasma
# [5] = male, Wistar, plasma, Rat, 0.25 mg/kg intravenous
# [6] = male, Wistar, po, Rat, 5 mg/kg p.o., Plasma
# [7] = male, Wistar, po, Rat, 5 mg/kg p.o., Total colon
compound,measurement,setting,value
"C#Cc1cc(Nc2nccc(Oc3ccc(NC(=O)Nc4cc(C(C)(C)C)nn4-c4ccc(C)cc4)c4ccccc34)n2)cc(C(=O)NCCOCCOCCOC)c1 [Example 2, 3-((4-((4-(3-(3-(tert-Butyl)-1-(p-tolyl)-1H-pyrazol-5-yl)ureido)naphthalen-1-yl)oxy)pyrimidin-2-yl)amino)-5-ethynyl-N-(2-(2-(2-methoxyethoxy)ethoxy)ethyl)-benzamide]",hepatocyte CLint at 0.1 μM,[1],49 µL/min/1e6 cells
same,% β-catenin induction,β-catenin; 1 μg/mL,0%
same,% β-catenin induction,β-catenin; 5 μg/mL,2%
same,% β-catenin induction,β-catenin; 10 μg/mL,0%
same,Fpo,"[2]; Rat, 5 mg/kg p.o., Plasma",0.04%
same,concentration at 1 h,[2]; [3],1.9 ng/g
same,concentration at 2 h,[2]; [3],4 ng/g
same,concentration at 4 h,[2]; [3],339 ng/g
same,concentration at 6 h,[2]; [3],1860 ng/g
same,concentration at 8 h,[2]; [3],2000 ng/g
same,concentration at 12 h,[2]; [3],597 ng/g
same,concentration at 24 h,[2]; [3],53.9 ng/g
same,concentration at 0.5 h,[2]; [3],3.3 ng/g
same,concentration at 1 h,[2]; [4],0.9 ng/mL
same,concentration at 2 h,[2]; [4],0.6 ng/mL
same,concentration at 4 h,[2]; [4],2.7 ng/mL
same,concentration at 6 h,[2]; [4],1.7 ng/mL
same,concentration at 8 h,[2]; [4],0.6 ng/mL
same,concentration at 12 h,[2]; [4],0.7 ng/mL
same,concentration at 24 h,[2]; [4],1.8 ng/mL
same,concentration at 0.5 h,[2]; [4],0.8 ng/mL
same,AUC(0-inf),[2]; [5],691 ng·h/mL
same,AUC(0-t),[2]; [5],682 ng·h/mL
same,C0,[2]; [5],5360 ng/mL
same,Vd,[2]; [5],0.3 L/kg
same,clearance,[2]; [5],6.3 mL/min/kg
same,half-life,[2]; [5],2.2 h
same,AUC(0-t),[2]; [6],4.8 ng·h/mL
same,Cmax,[2]; [6],2.7 ng/mL
same,Tmax,[2]; [6],4 h
same,AUC(0-inf),[2]; [7],15800 ng·h/mL
same,AUC(0-t),[2]; [7],15500 ng·h/mL
same,Cmax,[2]; [7],2000 ng/mL
same,Tmax,[2]; [7],8 h
same,"Mean concentration, Colon","[2]; rat, 5 mg/kg p.o., Pre-dose",0.0 ng/g
same,"Mean concentration, Plasma","[2]; rat, 5 mg/kg p.o., Pre-dose",0.0 ng/mL
same,IC50,Syk,50 nM
same,IC50,c-Src,11 nM
